Experimental findings from the supplement of paper PMC11061612 are described below.

Each structure is given as a SMILES string.

Assay [1] concerns SUP-HD1 (Hodgkin's Lymphoma). Kind of assay: Bliss excess, mean over the matrix (fraction); higher = more synergy. Put shortly: (§1)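 After 24 hours at 37°C and 5% CO2 in 1536-well plates, cells in DMEM/F12 or RPMI plus 10% FBS received two-drug dose matrices for 72 hours. Viability came from CellTiter-Glo 2.0 luminescence and was scaled as inhibition, anchored at 0 by vehicle wells and at 1 by blank wells. Combination Emax is taken as the second-highest inhibition in the matrix, and Bliss excess as the observed combination effect less EA + EB − EA·EB, with EA and EB the single-agent effects.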

Assay [2] deals with HT-1197 (Bladder Carcinoma). The assay is described as above. Put shortly: as §1
For a further assay, the system named is SK-MEL-24 (Melanoma). The description is as above. The procedure, abridged:
as §1

For assay [3], the system named is SCC90 (Head and Neck Carcinoma). The assay is described as above. The procedure, abridged:
as §1

Assay [4] relates to JJN-3 (Plasma Cell Myeloma). Described as above. The procedure, abridged: as §1
The subject of assay [5] is TOV-21G (Ovarian Carcinoma). The assay is described as above. Put shortly:
as §1

Assay [6] deals with NCI-H2009 (Lung Adenocarcinoma). The assay is described as above. The procedure, abridged: as §1
The subject of assay [7] is BC-1 (B-Cell Non-Hodgkin's Lymphoma). The description is as above. The procedure, abridged:
as §1

Assay [8] relates to NCI-H1648 (Lung Adenocarcinoma). The assay is described as above. The procedure, abridged: as §1
Assay [9] deals with C2BBe1 (Colorectal Carcinoma). The description is as above. The procedure, abridged:
as §1

The test system of assay [10] is SW1463 (Colorectal Carcinoma). Described as above. Put shortly: as §1
Assay [11] relates to HT-3 (Cervical Carcinoma). Described as above. The procedure, abridged: as §1
The test system of assay [12] is KNS-62 (Squamous Cell Lung Carcinoma). The assay can be described thus: combination Emax (second highest fraction inhibited in the dose matrix, 72 h); higher = more inhibition; extreme values may be limits of the assay. Put shortly: as §1
Assay [13] concerns CAL-85-1 (Breast Carcinoma). Described as above. The procedure, abridged: as §1
Assay [14] relates to TOV-21G (Ovarian Carcinoma). The assay is described as above. Put shortly: as §1
Assay [15] concerns NCI-H2023 (Non-Small Cell Lung Carcinoma). The description is as above. The procedure, abridged: as §1
The test system of assay [16] is NCI-H1648 (Lung Adenocarcinoma). The assay is described as above. Put shortly:
as §1

For assay [17], the system named is MRK-nu-1 (Breast Carcinoma). Described as above. The procedure, abridged:
as §1

Assay [18] concerns NCI-H1944 (Lung Adenocarcinoma). The description is as above. The procedure, abridged: as §1
In assay [19] the test system is L-363 (Plasma Cell Myeloma). The assay is described as above. Put shortly:
as §1
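Throughout, for Bliss excess, mean over the matrix: after 72 h of two-drug dosing.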

As to `CC1(C)CCC(CN2CCN(c3ccc(C(=O)NS(=O)(=O)c4ccc(NCC5CCOCC5)c([N+](=O)[O-])c4)c(Oc4cnc5[nH]ccc5c4)c3)CC2)=C(c2ccc(Cl)cc2)C1` [Venetoclax] + CCN(CCO)CCCOc1ccc2c(Nc3cc(CC(=O)Nc4cccc(F)c4)[nH]n3)ncnc2c1 [AZD2811] (first compound max 1 µM, 7x7, partner max 1 µM), the Bliss excess is -0.0195 in assay [1]; -0.0204 in assay [2]; -0.053 with SK-MEL-24 (Melanoma); 0.169 in assay [3]; 0.169 in assay [4]; 0.0149 in [5]. Also, the Bliss excess in assay [6] is -0.035; in assay [7], 0.111; in assay [8], -0.0235; in assay [9], -0.0368; in assay [10], -0.0389; in assay [11], -0.0129. In addition, the “combination Emax” value in assay [12] stood at 0.275; in assay [13] it was 0.156; in assay [14], 0.354; in assay [15] it was 0.378; in assay [16], 0.201; in assay [17] it was 0.612. Besides, the “combination Emax” value in assay [18] was 0.255; in [19], 0.865.
As for `CC1(C)CCC(CN2CCN(c3ccc(C(=O)NS(=O)(=O)c4ccc(NCC5CCOCC5)c([N+](=O)[O-])c4)c(Oc4cnc5[nH]ccc5c4)c3)CC2)=C(c2ccc(Cl)cc2)C1` [Venetoclax] + CN(C)CCCOc1ccc(-c2ccc3ncc4c(c3c2)n(C2CCOCC2)c(=O)n4C)cn1 [AZD0156] (first compound max 1 µM, 7x7, partner max 1 µM), the Bliss excess was -0.0962 in assay [1]; -0.0266 in assay [2]; -0.0426 in the assay with SK-MEL-24 (Melanoma); 0.0217 in assay [3]; 0.0008 in assay [4]; -0.0322 in [5]. Moreover, the Bliss excess in [6] is -0.0283; in assay [7] it was 0.0066; in assay [8], -0.0685; in assay [9] it was -0.0333; in [10], -0.045; in assay [11], -0.0423. For the same molecule, the “combination Emax” value in assay [12] turned out to be 0.262; in assay [13], 0.136; in assay [14] it was 0.18; in assay [15], 0.338; in assay [16], 0.267; in assay [17], 0.132. Moreover, the “combination Emax” value in assay [18] is 0.228; in [19] it was 0.867.
`CC1(C)CCC(CN2CCN(c3ccc(C(=O)NS(=O)(=O)c4ccc(NCC5CCOCC5)c([N+](=O)[O-])c4)c(Oc4cnc5[nH]ccc5c4)c3)CC2)=C(c2ccc(Cl)cc2)C1` [Venetoclax] + COc1cc(Nc2ncc3c(n2)-c2ccc(Cl)cc2C(c2c(F)cccc2OC)=NC3)ccc1C(=O)O [Alisertib] (first compound max 1 µM, 7x7, partner max 10 µM): the Bliss excess was 0.0776 in assay [1]; -0.0358 in assay [2]; -0.0132 in the assay with SK-MEL-24 (Melanoma); 0.135 in assay [3]; 0.45 in assay [4]; -0.006 in assay [5]. Moreover, the Bliss excess in assay [6] was 0.0023; in assay [7], -0.0492; in assay [8], 0.0579; in assay [9], -0.0271; in assay [10] it was 0.017; in assay [11], -0.0262. Further, the “combination Emax” value in assay [12] is 0.283; in assay [13], 0.438; in assay [14] it was 0.682; in assay [15], 0.477; in assay [16], 0.58; in assay [17], 0.628. Also, the “combination Emax” value in [18] was found to be 0.544; in assay [19], 0.772.
With `CC1(C)CCC(CN2CCN(c3ccc(C(=O)NS(=O)(=O)c4ccc(NCC5CCOCC5)c([N+](=O)[O-])c4)c(Oc4cnc5[nH]ccc5c4)c3)CC2)=C(c2ccc(Cl)cc2)C1` [Venetoclax] + C[C@@H]1COCCN1C2=NC(=NC(=C2)C3(CC3)[S@](=N)(=O)C)C4=C5C=CNC5=NC=C4 [AZD6738] (first compound max 1 µM, 7x7, partner max 10 µM), the Bliss excess in assay [1] is -0.0605; in assay [2], -0.0033; in the assay on SK-MEL-24 (Melanoma), -0.0429; in [3], -0.014; in [4] it was 0.067; in assay [5], -0.0256. The Bliss excess in assay [6] was -0.0357; in assay [7], 0.0087; in assay [8] it was -0.0262; in [9] it was -0.0092; in [10] it was -0.06; in assay [11], -0.0419. For the same molecule, the “combination Emax” value was 0.523 in [12]; 0.571 in assay [13]; 0.785 in [14]; 0.729 in [15]; 0.668 in assay [16]; 0.665 in assay [17]. The “combination Emax” value was determined as 0.892 in assay [18] and 0.897 in assay [19].
With `CC1(C)CCC(CN2CCN(c3ccc(C(=O)NS(=O)(=O)c4ccc(NCC5CCOCC5)c([N+](=O)[O-])c4)c(Oc4cnc5[nH]ccc5c4)c3)CC2)=C(c2ccc(Cl)cc2)C1` [Venetoclax] + C[C@@H](Nc1cc(F)cc(F)c1)c1cc(C(=O)N(C)C)cc2c(=O)cc(N3CCOCC3)oc12 [AZD8186] (first compound max 1 µM, 7x7, partner max 3 µM), the Bliss excess in [1] was -0.025; in assay [2], -0.0785; in the assay on SK-MEL-24 (Melanoma), -0.0585; in [3] it was 0.048; in assay [4], -0.0092; in assay [5] it was -0.0271. Besides, the Bliss excess is -0.0281 in assay [6]; -0.0157 in [7]; -0.0603 in [8]; -0.135 in assay [9]; -0.0393 in [10]; -0.0359 in [11]. In addition, the “combination Emax” value worked out at 0.133 in assay [12]; 0.146 in assay [13]; 0.149 in [14]; 0.416 in [15]; 0.454 in assay [16]; 0.175 in assay [17]. Moreover, the “combination Emax” value was determined as 0.184 in [18] and 0.805 in assay [19].
In the case of `CC1(C)CCC(CN2CCN(c3ccc(C(=O)NS(=O)(=O)c4ccc(NCC5CCOCC5)c([N+](=O)[O-])c4)c(Oc4cnc5[nH]ccc5c4)c3)CC2)=C(c2ccc(Cl)cc2)C1` [Venetoclax] + Cc1cc2ncnn2cc1Nc1ncc2c(n1)n(C1CCOCC1)c(=O)n2C [AZD7648] (first compound max 1 µM, 7x7, partner max 10 µM), the Bliss excess in [1] was -0.0659; in assay [2], -0.0208; in the assay with SK-MEL-24 (Melanoma), -0.0553; in [3], 0.118; in assay [4], 0.0741; in assay [5] it was -0.002. Moreover, the Bliss excess in [6] is -0.053; in [7], 0.017; in [8] it was -0.0431; in [9], -0.0132; in assay [10], -0.0479; in assay [11], -0.016. Moreover, the “combination Emax” value in assay [12] turned out to be 0.219; in assay [13] it was 0.284; in assay [14], 0.195; in [15], 0.392; in assay [16] it was 0.43; in assay [17], 0.523. Moreover, the figures for the “combination Emax” value in assay [18] and in assay [19] were 0.353 and 0.867, respectively.
For the molecule `CC1(C)CCC(CN2CCN(c3ccc(C(=O)NS(=O)(=O)c4ccc(NCC5CCOCC5)c([N+](=O)[O-])c4)c(Oc4cnc5[nH]ccc5c4)c3)CC2)=C(c2ccc(Cl)cc2)C1` [Venetoclax] + Cn1cnc2c(F)c(Nc3ccc(Br)cc3Cl)c(C(=O)NOCCO)cc21 [Selumetinib] (first compound max 1 µM, 7x7, partner max 3 µM), the Bliss excess in [1] was -0.039; in [2], -0.0072; in the assay with SK-MEL-24 (Melanoma) it was -0.0001; in assay [3], 0.161; in [4], 0.0473; in assay [5], 0.0133. Further, the Bliss excess in assay [6] was -0.024; in assay [7], 0.0211; in [8] it was -0.0379; in assay [9], -0.102; in [10] it was -0.0631; in assay [11] it was -0.0218. Besides, the “combination Emax” value in [12] turned out to be 0.253; in assay [13] it was 0.356; in [14] it was 0.216; in assay [15], 0.177; in assay [16], 0.496; in [17], 0.235. Moreover, the “combination Emax” value amounted to 0.239 in assay [18] and 0.833 in assay [19].
